# Data taken from US10653672B2, “Myogenesis promotor, muscle atrophy inhibitor, medical composition and TAZ activator” (National University Corporation Tokyo Medical and Dental …, priority 2014, dated 2020).
# System: C2C12 cells
# Assay: Evaluation of myogenesis of C2C12 cells by fusion index
# Type: cell-based, mouse
# Conditions: differentiation condition 72 hours, DMSO as 1, average of three
# Procedure: (1) C2C12 cells were grown to confluence under growth condition, and then in differentiation condition for 72 hours, in a culture medium added with DMSO, IBS008738 (exemplary compound 1) or exemplary compounds 2 to 44, at a concentration of 1 μM, 3 μM or 10 μM, respectively. Thereafter, the degree of myogenesis was evaluated by a fusion index (a value obtained by dividing the number of nuclei detected in multinucleated myosin heavy chain (MHC)-positive cells by the total number of the nuclei). Specifically, exemplary compounds were divided into five groups, and DMSO and IBS008738 were evaluated in each group as controls. The evaluation was conducted three times, and the average value and the standard deviation of the fusion index was relativized with the measured value of DMSO as 1.
# C2C12 cells were passaged in a growth medium (DMEM containing 10% FBS) and differentiated in a differentiation medium (DMEM containing 2% horse serum (Invitrogen)).
compound,measurement,setting,value
Cc1ccc(-n2cnc(N(C)C)c2C(=O)c2ccccc2)cc1 [exemplary compound 18],relative fusion index (FI),"Group 3, 1 μM",1.34
same,relative fusion index (FI),"Group 3, 3 μM",1.52
same,relative fusion index (FI),"Group 3, 10 μM",1.85
CN(C)/C=N/c1ncn(-c2ccc(Br)cc2)c1C(=O)c1ccccc1 [exemplary compound 19],relative fusion index (FI),"Group 3, 1 μM",1.25
same,relative fusion index (FI),"Group 3, 3 μM",1.57
same,relative fusion index (FI),"Group 3, 10 μM",1.63
COc1ccc(-n2cnc(/N=C/N(C)C)c2C(=O)c2ccccc2)cc1 [exemplary compound 14],relative fusion index (FI),"Group 2, 1 μM",1.18
same,relative fusion index (FI),"Group 2, 3 μM",1.63
same,relative fusion index (FI),"Group 2, 10 μM",1.72
CCOC(=O)c1c(/N=C/N2CCOCC2)ncn1-c1ccc(C)cc1 [exemplary compound 10],relative fusion index (FI),"Group 1, 1 μM",0.80
same,relative fusion index (FI),"Group 1, 3 μM",1.31
same,relative fusion index (FI),"Group 1, 10 μM",0.85
CC(C)(C)OC(=O)NCCc1ccc(-n2cnc(N)c2C(=O)c2ccccc2)cc1 [exemplary compound 27],relative fusion index (FI),"Group 4, 1 μM",0.97
same,relative fusion index (FI),"Group 4, 3 μM",1.67
same,relative fusion index (FI),"Group 4, 10 μM",1.98
Cc1ccc(-n2cnc(N)c2C(=O)c2ccc(Br)cc2)cc1 [exemplary compound 36],relative fusion index (FI),"Group 4, 1 μM",1.12
same,relative fusion index (FI),"Group 4, 3 μM",1.57
same,relative fusion index (FI),"Group 4, 10 μM",1.59
Cc1ccc(-n2cnc(N)c2C(=O)c2ccc(F)cc2)cc1 [exemplary compound 34],relative fusion index (FI),"Group 4, 1 μM",1.38
same,relative fusion index (FI),"Group 4, 3 μM",1.33
same,relative fusion index (FI),"Group 4, 10 μM",1.49
Cc1ccc(-n2cnc(/N=C/c3ccccc3)c2C(=O)c2ccccc2)cc1 [exemplary compound 6],relative fusion index (FI),"Group 1, 1 μM",0.96
same,relative fusion index (FI),"Group 1, 3 μM",1.78
same,relative fusion index (FI),"Group 1, 10 μM",1.42
N#Cc1ccc(-n2cnc(N)c2C(=O)c2ccccc2)cc1 [exemplary compound 39],relative fusion index (FI),"Group 5, 1 μM",1.04
same,relative fusion index (FI),"Group 5, 3 μM",1.10
same,relative fusion index (FI),"Group 5, 10 μM",1.09
O=C(c1ccccc1)c1c(/N=C/N2CCOCC2)ncn1-c1ccc(Br)cc1 [exemplary compound 20],relative fusion index (FI),"Group 3, 1 μM",1.26
same,relative fusion index (FI),"Group 3, 3 μM",1.41
same,relative fusion index (FI),"Group 3, 10 μM",1.60
Cc1ccc(-n2cnc(/N=C/N3CCCCC3)c2C(=O)c2ccccc2)cc1 [exemplary compound 4],relative fusion index (FI),"Group 1, 1 μM",1.02
same,relative fusion index (FI),"Group 1, 3 μM",1.54
same,relative fusion index (FI),"Group 1, 10 μM",1.51
Cc1ccc(-n2cnc(N)c2C(=O)c2ccccc2)c(C)c1 [exemplary compound 43],relative fusion index (FI),"Group 5, 1 μM",1.07
same,relative fusion index (FI),"Group 5, 3 μM",1.11
same,relative fusion index (FI),"Group 5, 10 μM",1.12
COc1ccc(-n2cnc(/N=C/N3CCOCC3)c2C(=O)c2ccccc2)cc1 [exemplary compound 15],relative fusion index (FI),"Group 2, 1 μM",1.20
same,relative fusion index (FI),"Group 2, 3 μM",1.58
same,relative fusion index (FI),"Group 2, 10 μM",1.58
Cc1ccc(-n2cnc(N)c2C(=O)c2ccc([N+](=O)[O-])cc2)cc1 [exemplary compound 33],relative fusion index (FI),"Group 4, 1 μM",0.91
same,relative fusion index (FI),"Group 4, 3 μM",1.20
same,relative fusion index (FI),"Group 4, 10 μM",1.23
Cc1ccc(-n2c(C)nc(N)c2C(=O)c2ccccc2)cc1 [exemplary compound 16],relative fusion index (FI),"Group 2, 1 μM",1.06
same,relative fusion index (FI),"Group 2, 3 μM",1.18
same,relative fusion index (FI),"Group 2, 10 μM",1.60
Cc1ccc(-n2cnc(N)c2C#N)cc1 [exemplary compound 26],relative fusion index (FI),"Group 3, 1 μM",1.01
same,relative fusion index (FI),"Group 3, 3 μM",1.09
same,relative fusion index (FI),"Group 3, 10 μM",1.44
Cc1cc(C)c(-n2cnc(N)c2C(=O)c2ccccc2)c(C)c1 [exemplary compound 44],relative fusion index (FI),"Group 5, 1 μM",1.11
same,relative fusion index (FI),"Group 5, 3 μM",1.08
same,relative fusion index (FI),"Group 5, 10 μM",1.07
Nc1ncn(-c2ccc(Br)cc2)c1C(=O)c1ccccc1 [exemplary compound 17],relative fusion index (FI),"Group 2, 1 μM",1.51
same,relative fusion index (FI),"Group 2, 3 μM",2.14
same,relative fusion index (FI),"Group 2, 10 μM",2.07
N#CCc1ccc(-n2cnc(N)c2C(=O)c2ccccc2)cc1 [exemplary compound 29],relative fusion index (FI),"Group 4, 1 μM",1.25
same,relative fusion index (FI),"Group 4, 3 μM",1.49
same,relative fusion index (FI),"Group 4, 10 μM",1.61
CCOC(=O)c1c(N)ncn1-c1ccc(C)cc1 [exemplary compound 7],relative fusion index (FI),"Group 1, 1 μM",1.09
same,relative fusion index (FI),"Group 1, 3 μM",1.55
same,relative fusion index (FI),"Group 1, 10 μM",1.44
Cc1ccc(-n2cnc(N)c2C(=O)c2cccc(Cl)c2)cc1 [exemplary compound 31],relative fusion index (FI),"Group 4, 1 μM",1.12
same,relative fusion index (FI),"Group 4, 3 μM",1.15
same,relative fusion index (FI),"Group 4, 10 μM",1.40
Cc1ccc(-n2cnc(N)c2C(=O)c2ccccc2)cc1 [exemplary compound 2],relative fusion index (FI),"Group 1, 1 μM",1.62
same,relative fusion index (FI),"Group 1, 3 μM",2.26
same,relative fusion index (FI),"Group 1, 10 μM",2.41
Cc1ccccc1-n1cnc(N)c1C(=O)C12CC3CC(CC(C3)C1)C2 [exemplary compound 42],relative fusion index (FI),"Group 5, 1 μM",1.08
same,relative fusion index (FI),"Group 5, 3 μM",1.03
same,relative fusion index (FI),"Group 5, 10 μM",1.10
CC(=O)c1c(N)ncn1-c1ccccc1C [exemplary compound 41],relative fusion index (FI),"Group 5, 1 μM",1.14
same,relative fusion index (FI),"Group 5, 3 μM",1.06
same,relative fusion index (FI),"Group 5, 10 μM",1.11
CC(=O)c1c(/N=C/N(C)C)ncn1-c1ccc(C)cc1 [exemplary compound 25],relative fusion index (FI),"Group 3, 1 μM",0.96
same,relative fusion index (FI),"Group 3, 3 μM",1.22
same,relative fusion index (FI),"Group 3, 10 μM",1.44
CCOC(=O)c1c(N)ncn1-c1ccccc1C [exemplary compound 40],relative fusion index (FI),"Group 5, 1 μM",1.12
same,relative fusion index (FI),"Group 5, 3 μM",1.15
same,relative fusion index (FI),"Group 5, 10 μM",1.10
COc1ccc(-n2cnc(N)c2C(=O)c2ccccc2)cc1 [exemplary compound 13],relative fusion index (FI),"Group 2, 1 μM",1.22
same,relative fusion index (FI),"Group 2, 3 μM",1.32
same,relative fusion index (FI),"Group 2, 10 μM",1.53
Cc1ccc(-n2cnc(N)c2C(=O)c2ccc(Cl)cc2)cc1 [exemplary compound 32],relative fusion index (FI),"Group 4, 1 μM",1.16
same,relative fusion index (FI),"Group 4, 3 μM",1.47
same,relative fusion index (FI),"Group 4, 10 μM",1.60
CC(=O)Nc1ncn(-c2ccc(C)cc2)c1C(=O)c1ccccc1 [exemplary compound 5],relative fusion index (FI),"Group 1, 1 μM",0.85
same,relative fusion index (FI),"Group 1, 3 μM",1.50
same,relative fusion index (FI),"Group 1, 10 μM",1.57
CCOC(=O)c1c(/N=C/N(C)C)ncn1-c1ccc(C)cc1 [exemplary compound 8],relative fusion index (FI),"Group 1, 1 μM",0.93
same,relative fusion index (FI),"Group 1, 3 μM",1.53
same,relative fusion index (FI),"Group 1, 10 μM",1.05
Nc1ncn(-c2ccc(Cl)cc2Cl)c1C(=O)c1ccccc1 [exemplary compound 35],relative fusion index (FI),"Group 4, 1 μM",1.27
same,relative fusion index (FI),"Group 4, 3 μM",1.60
same,relative fusion index (FI),"Group 4, 10 μM",1.55
COc1ccc(C(=O)c2c(N)ncn2-c2ccc(C)cc2)cc1 [exemplary compound 30],relative fusion index (FI),"Group 4, 1 μM",1.27
same,relative fusion index (FI),"Group 4, 3 μM",1.52
same,relative fusion index (FI),"Group 4, 10 μM",1.54
Nc1ncn(-c2ccccn2)c1C(=O)c1ccccc1 [exemplary compound 38],relative fusion index (FI),"Group 5, 1 μM",1.08
same,relative fusion index (FI),"Group 5, 3 μM",1.12
same,relative fusion index (FI),"Group 5, 10 μM",1.15
CNc1ncn(-c2ccc(C)cc2)c1C(=O)c1ccccc1 [exemplary compound 12],relative fusion index (FI),"Group 2, 1 μM",1.24
same,relative fusion index (FI),"Group 2, 3 μM",1.43
same,relative fusion index (FI),"Group 2, 10 μM",1.36
Cc1ccc(-n2cnc(N)c2C(=O)C23CC4CC(CC(C4)C2)C3)cc1 [exemplary compound 37],relative fusion index (FI),"Group 4, 1 μM",1.39
same,relative fusion index (FI),"Group 4, 3 μM",1.47
same,relative fusion index (FI),"Group 4, 10 μM",1.77
NCCc1ccc(-n2cnc(N)c2C(=O)c2ccccc2)cc1 [exemplary compound 28],relative fusion index (FI),"Group 4, 1 μM",1.21
same,relative fusion index (FI),"Group 4, 3 μM",1.42
same,relative fusion index (FI),"Group 4, 10 μM",1.64
